system: circulating lymphocytes; assay: Assessment of in vivo efficacy: circulating lymphocytes after oral administration; set-up: species or system rat; conditions: 6 h after oral administration of 10 mg/kg, normotensive male Wistar rats, compared to vehicle-treated group

Structure (SMILES)	Lymphocyte counts
Cc1cc(-c2noc(-c3sc(C)c4c3C[C@@H]3[C@H]4C3(C)C)n2)cc(C)c1OCC(CO)CO [Example 19, 2-{2,6-dimethyl-4-[5-((1aS,5aR)-1,1,2-trimethyl-1,1a,5,5a-tetrahydro-3-thia-cyclopropa[a]pentalen-4-yl)-[1,2,4]oxadiazol-3-yl]-phenoxymethyl}-propane-1,3-diol]	−56%

target: recombinant human S1P1 receptor (Homo sapiens, UniProt P21453); assay: GTPγS assay to determine EC50 values; format: biochemical; conditions: 35S-GTPγS binding, membrane preparations of CHO cells expressing recombinant human S1P1 receptor
Sequence (P21453 whole entry): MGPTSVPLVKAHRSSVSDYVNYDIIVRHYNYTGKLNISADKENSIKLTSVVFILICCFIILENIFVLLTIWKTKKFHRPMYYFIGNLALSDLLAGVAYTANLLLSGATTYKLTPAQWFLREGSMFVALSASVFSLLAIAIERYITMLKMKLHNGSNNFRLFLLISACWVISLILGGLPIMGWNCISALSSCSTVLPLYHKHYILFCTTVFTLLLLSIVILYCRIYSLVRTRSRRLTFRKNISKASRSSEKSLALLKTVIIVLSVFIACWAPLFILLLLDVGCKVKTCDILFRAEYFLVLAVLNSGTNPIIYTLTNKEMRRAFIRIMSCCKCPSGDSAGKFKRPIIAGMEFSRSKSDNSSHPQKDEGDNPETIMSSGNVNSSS
Method: The pH is 7.4. Test compounds are dissolved and diluted in 100% DMSO and pre-incubated at room temperature for 30 min in 150 μl of the above assay buffer, in the absence of ^35S-GTPγS. After addition of 50 μl of ^35S-GTPγS, the assay is incubated for 1 h at room temperature. […] Membrane-bound ^35S-GTPγS is measured with a TopCount from Packard Biosciences.
Specific binding is determined by subtracting non-specific binding from maximal binding. Maximal binding is the amount of cpm bound to the Multiscreen plate in the presence of 10 μM of S1P. Non-specific binding is the amount of binding in the absence of an agonist in the assay.

Structure (SMILES)	EC50
Cc1cc(-c2noc(-c3sc(C)c4c3C[C@@H]3[C@H]4C3(C)C)n2)cc(C)c1OCCCN1CCCC1C(=O)O (stereo partly drawn) [Example 32, 1-(3-{2,6-dimethyl-4-[5-((1aS,5aR)-1,1,2-trimethyl-1,1a,5,5a-tetrahydro-3-thia-cyclopropa[a]pentalen-4-yl)-[1,2,4]oxadiazol-3-yl]-phenoxy}-propyl)-pyrrolidine-2-carboxylic acid]	8.8 nM
Cc1cc(-c2noc(-c3sc(C)c4c3C[C@@H]3[C@H]4C3(C)C)n2)cc(C)c1OCCCNCCO [Example 27, 2-(3-{2,6-dimethyl-4-[5-((1aS,5aR)-1,1,2-trimethyl-1,1a,5,5a-tetrahydro-3-thia-cyclopropa[a]pentalen-4-yl)-[1,2,4]oxadiazol-3-yl]-phenoxy}-propylamino)-ethanol]	6.1 nM
Cc1cc(-c2noc(-c3sc(C)c4c3C[C@@H]3[C@H]4C3(C)C)n2)cc(C)c1OCCCN [Example 24, 3-{2,6-dimethyl-4-[5-((1aS,5aR)-1,1,2-trimethyl-1,1a,5,5a-tetrahydro-3-thia-cyclopropa[a]pentalen-4-yl)-[1,2,4]oxadiazol-3-yl]-phenoxy}-propylamine]	4.8 nM
Cc1sc(-c2nc(-c3ccc(OC[C@H](O)CO)cc3)no2)c2c1[C@H]1[C@@H](C2)C1(C)C [Example 6, (2R)-3-{4-[5-((1aS,5aR)-1,1,2-trimethyl-1,1a,5,5a-tetrahydro-3-thia-cyclopropa[a]pentalen-4-yl)-[1,2,4]oxadiazol-3-yl]-phenoxy}-propane-1,2-diol]	12 nM

Stronger by EC50, values ahead:

EC50	Structure (SMILES)
1.6 nM	Cc1cc(-c2nc(-c3sc(C)c4c3C[C@@H]3[C@H]4C3(C)C)no2)cc(C)c1O [Example 38, 2,6-dimethyl-4-[3-((1aS,5aR)-1,1,2-trimethyl-1,1a,5,5a-tetrahydro-3-thia-cyclopropa[a]pentalen-4-yl)-[1,2,4]oxadiazol-5-yl]-phenol]
1.4 nM	Cc1cc(-c2nc(-c3sc(C)c4c3C[C@@H]3[C@H]4C3(C)C)no2)cc(C)c1OCC(CO)CO [Example 43, 2-{2,6-dimethyl-4-[3-((1aS,5aR)-1,1,2-trimethyl-1,1a,5,5a-tetrahydro-3-thia-cyclopropa[a]pentalen-4-yl)-[1,2,4]oxadiazol-5-yl]-phenoxymethyl}-propane-1,3-diol]
1.2 nM	Cc1cc(-c2noc(-c3sc(C)c4c3C[C@@H]3[C@H]4C3(C)C)n2)cc(C)c1OCC(CO)CO [Example 19, 2-{2,6-dimethyl-4-[5-((1aS,5aR)-1,1,2-trimethyl-1,1a,5,5a-tetrahydro-3-thia-cyclopropa[a]pentalen-4-yl)-[1,2,4]oxadiazol-3-yl]-phenoxymethyl}-propane-1,3-diol]
1.1 nM	Cc1cc(-c2nc(-c3sc(C)c4c3C[C@@H]3[C@H]4C3(C)C)no2)cc(C)c1OCCO [Example 39, 2-{2,6-dimethyl-4-[3-((1aS,5aR)-1,1,2-trimethyl-1,1a,5,5a-tetrahydro-3-thia-cyclopropa[a]pentalen-4-yl)-[1,2,4]oxadiazol-5-yl]-phenoxy}-ethanol]
